Laboratory results from ChEMBL document CHEMBL5500417, “Discovery of Novel 2-Oxoacetamide Derivatives as B3GAT3 Inhibitors for the Treatment of Hepatocellular Carcinoma” (J Med Chem, 2024).

Experiments:
HCCLM3 [1] = experiment: cells; conditions: Homo sapiens, HCCLM3, 72 h
Description: Antitumor activity against human HCCLM3 cells assessed as inhibition of cell growth measured after 72 hrs by CCK-8 assay

MHCC97H [2] = experiment: cells; conditions: Homo sapiens, 72 h
Description: Antitumor activity against human MHCC97H cells assessed as inhibition of cell growth measured after 72 hrs by CCK-8 assay

[3] = target: T1, Galactosylgalactosylxylosylprotein 3-beta-glucuronosyltransferase 3 (Homo sapiens, UniProt O94766); experiment: Binding affinity to CM5 sensor chip immobilized human B3GAT3 assessed as dissociation constant by SPR analysis
T1 sequence (O94766 whole entry): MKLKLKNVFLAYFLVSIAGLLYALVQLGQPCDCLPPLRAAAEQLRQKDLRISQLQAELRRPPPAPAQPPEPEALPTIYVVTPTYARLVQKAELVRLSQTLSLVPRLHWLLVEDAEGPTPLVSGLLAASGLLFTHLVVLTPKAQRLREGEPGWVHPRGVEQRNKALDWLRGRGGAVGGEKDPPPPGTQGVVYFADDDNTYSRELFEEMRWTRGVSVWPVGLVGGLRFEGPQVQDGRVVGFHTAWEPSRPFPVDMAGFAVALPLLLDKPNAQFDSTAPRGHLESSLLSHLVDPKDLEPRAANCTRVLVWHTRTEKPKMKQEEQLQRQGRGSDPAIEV

HCCLM3 [4] = experiment: In vivo-antitumor activity against human HCCLM3 cells xenografted BALB/c mouse model assessed as reduction in tumor weight at 5 mg/kg, IG once daily measured after 31 days relative to control; conditions: HCCLM3, po, 744 h, read-out: INH
MHCC97H [5] = experiment: In vivo-antitumor activity against human MHCC97H cells xenografted BALB/c mouse model assessed as tumor growth inhibitor at 5 mg/kg, IG once daily measured after 31 days relative to control; conditions: po, 744 h, read-out: TGI
MHCC97H [6] = experiment: Cytotoxicity against (shRNA)-mediated B3GAT3 KO human MHCC97H cells assessed as cell viability measured after 72 hrs by CCK8 assay
MKN-45 = experiment: cells; conditions: Homo sapiens, MKN-45, 72 h
Description: Anti-tumor activity against human MKN-45 cells assessed as inhibition of cell growth measured after 72 hrs by CCK-8 assay

in vivo [7] = conditions: BALB/c, mouse, iv, 1.2 mg/kg
Description: Tmax in BALB/c mouse at 1.2 mg/kg, iv measured upto 24 hrs by LC-MS/MS analysis

[8] = target: T1, Galactosylgalactosylxylosylprotein 3-beta-glucuronosyltransferase 3; experiment: Binding affinity to biotinylated B3GAT3 (unknown origin) assessed as dissociation constant by biolayer interferometry (BLI) analysis
MHCC97H [9] = experiment: In vivo-antitumor activity against human MHCC97H cells xenografted BALB/c mouse model assessed as tumor growth inhibitor at 10 mg/kg, IG once daily measured after 31 days relative to control; conditions: po, 744 h, read-out: TGI
Hepa 1-6 = experiment: cells; conditions: Mus musculus, Hepa1-6, 72 h
Description: Antitumor activity against mouse Hepa1-6 cells assessed as inhibition of cell proliferation measured after 72 hrs by CCK-8 assay

MHCC97H [10] = experiment: In vivo-antitumor activity against human MHCC97H cells xenografted BALB/c mouse model assessed as tumor growth inhibitor at 20 mg/kg, IG once daily measured after 31 days relative to control; conditions: po, 744 h, read-out: TGI
SK-OV-3 = experiment: cells; conditions: Homo sapiens, SK-OV-3, 72 h
Description: Anti-tumor activity against human SK-OV-3 cells assessed as inhibition of cell growth measured after 72 hrs by CCK-8 assay

PLC-PRF-5 = experiment: cells; conditions: Homo sapiens, PLC-PRF-5, 72 h
Description: Antitumor activity against human PLC-PRF-5 cells assessed as inhibition of cell proliferation measured after 72 hrs by CCK-8 assay

Jurkat = experiment: cells; conditions: Homo sapiens, 72 h
Description: Anti-tumor activity against human Jurkat cells assessed as inhibition of cell growth measured after 72 hrs by CCK-8 assay

in vivo [11] = conditions: BALB/c, mouse, iv, 1.2 mg/kg; remark: listed apart in the source
Description: AUC in BALB/c mouse at 1.2 mg/kg, iv measured upto 24 hrs by LC-MS/MS analysis

Calu-3 = experiment: cells; conditions: Homo sapiens, Calu-3, 72 h
Description: Anti-tumor activity against human Calu-3 cells assessed as inhibition of cell growth measured after 72 hrs by CCK-8 assay

MHCC97H [12] = experiment: Cytotoxicity against (shRNA)-Ctrl transfected human MHCC97H cells assessed as cell viability measured after 72 hrs by CCK8 assay
THLE-2 = experiment: cells; conditions: Homo sapiens, THLE-2, 72 h
Description: Antitumor activity against human THLE-2 cells assessed as inhibition of cell proliferation measured after 72 hrs by CCK-8 assay

HCCLM3 [13] = experiment: cells; conditions: Homo sapiens, HCCLM3, 72 h; remark: listed apart in the source
Description: Antitumor activity against human HCCLM3 cells assessed as inhibition of cell proliferation measured after 72 hrs by CCK-8 assay

[14] = Half life in BALB/c mouse at 1.2 mg/kg, iv measured upto 24 hrs by LC-MS/MS analysis; conditions: in vivo
in vivo [15] = conditions: BALB/c, mouse, iv, 1.2 mg/kg; remark: listed apart in the source
Description: Cmax in BALB/c mouse at 1.2 mg/kg, iv measured upto 24 hrs by LC-MS/MS analysis

K562 = experiment: cells; conditions: Homo sapiens, K562, 72 h
Description: Anti-tumor activity against human K562 cells assessed as inhibition of cell growth measured after 72 hrs by CCK-8 assay

[16] = Clearance in BALB/c mouse at 10 mg/kg, po measured upto 24 hrs by LC-MS/MS analysis; conditions: in vivo
NCI-H446 = experiment: cells; conditions: Homo sapiens, NCI-H446, 72 h
Description: Anti-tumor activity against human NCI-H446 cells assessed as inhibition of cell growth measured after 72 hrs by CCK-8 assay

HT-29 = experiment: cells; conditions: Homo sapiens, HT-29, 72 h
Description: Anti-tumor activity against human HT-29 cells assessed as inhibition of cell growth measured after 72 hrs by CCK-8 assay

Hep 3B2 = experiment: cells; conditions: Homo sapiens, Hep3B, 72 h
Description: Antitumor activity against human Hep3B cells assessed as inhibition of cell proliferation measured after 72 hrs by CCK-8 assay

in vivo [17] = conditions: BALB/c, mouse, po, 10 mg/kg
Description: Tmax in BALB/c mouse at 10 mg/kg, po measured upto 24 hrs by LC-MS/MS analysis

Huh-7 = experiment: cells; conditions: Homo sapiens, Huh-7, 72 h
Description: Antitumor activity against human Huh-7 cells assessed as inhibition of cell proliferation measured after 72 hrs by CCK-8 assay

NCI-H1650 = experiment: cells; conditions: Homo sapiens, NCI-H1650, 72 h
Description: Anti-tumor activity against human NCI-H1650 cells assessed as inhibition of cell growth measured after 72 hrs by CCK-8 assay

MDA-MB-231 = experiment: cells; conditions: Homo sapiens, MDA-MB-231, 72 h
Description: Anti-tumor activity against human MDA-M8-231 cells assessed as inhibition of cell growth measured after 72 hrs by CCK-8 assay

[18] = Half life in BALB/c mouse at 10 mg/kg, po measured upto 24 hrs by LC-MS/MS analysis; conditions: in vivo
PC-3 = experiment: cells; conditions: Homo sapiens, PC-3, 72 h
Description: Anti-tumor activity against human PC-3 cells assessed as inhibition of cell growth measured after 72 hrs by CCK-8 assay

in vivo [19] = conditions: BALB/c, mouse, po, 10 mg/kg; remark: listed apart in the source
Description: Oral bioavailability in BALB/c mouse at 10 mg/kg measured upto 24 hrs by LC-MS/MS analysis

H4 = experiment: cells; conditions: Homo sapiens, H4, 72 h
Description: Anti-tumor activity against human H4 cells assessed as inhibition of cell growth measured after 72 hrs by CCK-8 assay

U-251 = experiment: cells; conditions: Homo sapiens, U-251, 72 h
Description: Anti-tumor activity against human U-251MG cells assessed as inhibition of cell growth measured after 72 hrs by CCK-8 assay

in vitro [20] = conditions: human, liver microsomes
Description: Metabolic stability in human liver microsomes assessed as half life at 0.02 uM measured upto 60 mins by LC-MS/MS analysis

in vitro [21] = conditions: mouse, liver microsomes
Description: Metabolic stability in mouse liver microsomes assessed as half life at 0.02 uM measured upto 60 mins by LC-MS/MS analysis

[22] = Clearance in BALB/c mouse at 1.2 mg/kg, iv measured upto 24 hrs by LC-MS/MS analysis; conditions: in vivo
HCCLM3 [23] = experiment: In vivo-antitumor activity against human HCCLM3 cells xenografted BALB/c mouse model assessed as tumor growth inhibitor at 10 mg/kg, IG once daily measured after 31 days relative to control; conditions: HCCLM3, po, 744 h, read-out: TGI
in vivo [24] = conditions: BALB/c, mouse, po, 10 mg/kg; remark: listed apart in the source
Description: AUC in BALB/c mouse at 10 mg/kg, po measured upto 24 hrs by LC-MS/MS analysis

in vivo [25] = conditions: BALB/c, mouse, po, 10 mg/kg; remark: listed apart in the source
Description: Cmax in BALB/c mouse at 10 mg/kg, po measured upto 24 hrs by LC-MS/MS analysis

U-937 = experiment: cells; conditions: Homo sapiens, U-937, 72 h
Description: Anti-tumor activity against human U-937 cells assessed as inhibition of cell growth measured after 72 hrs by CCK-8 assay

MEG-01 = experiment: cells; conditions: Homo sapiens, MEG-01, 72 h
Description: Anti-tumor activity against human MEG-01 cells assessed as inhibition of cell growth measured after 72 hrs by CCK-8 assay

SNU-387 = experiment: cells; conditions: Homo sapiens, SNU-387, 72 h
Description: Antitumor activity against human SNU-387 cells assessed as inhibition of cell proliferation measured after 72 hrs by CCK-8 assay

SW-620 = experiment: cells; conditions: Homo sapiens, SW-620, 72 h
Description: Anti-tumor activity against human SW620 cells assessed as inhibition of cell growth measured after 72 hrs by CCK-8 assay

AGS = experiment: cells; conditions: Homo sapiens, 72 h
Description: Anti-tumor activity against human AGS cells assessed as inhibition of cell growth measured after 72 hrs by CCK-8 assay

in vitro [26] = conditions: rat, liver microsomes
Description: Metabolic stability in rat liver microsomes assessed as half life at 0.02 uM measured upto 60 mins by LC-MS/MS analysis

THP-1 = experiment: cells; conditions: Homo sapiens, THP-1, 72 h
Description: Anti-tumor activity against human THP-1 cells assessed as inhibition of cell growth measured after 72 hrs by CCK-8 assay

MHCC97H [27] = experiment: cells; conditions: Homo sapiens, 72 h; remark: listed apart in the source
Description: Antitumor activity against human MHCC97H cells assessed as inhibition of cell proliferation measured after 72 hrs by CCK-8 assay

HCC1937 = experiment: cells; conditions: Homo sapiens, HCC1937, 72 h
Description: Anti-tumor activity against human HCC1937 cells assessed as inhibition of cell growth measured after 72 hrs by CCK-8 assay

## Cc1ccc(N2CCC(NC(=O)C(=O)Nc3ccc4c(c3)Cc3ccccc3-4)C2=O)c(Cl)c1 (stereo not given)
HCCLM3 [1]
  IC50: 14.5 µM
MHCC97H [2]
  IC50: 14.3 µM
[3]
  Kd: 291 µM

## Cc1ccc(N2CCC(NC(=O)C(=O)c3c[nH]c4ccc(Br)cc34)C2=O)c(Cl)c1 (stereo not given)
HCCLM3 [1]
  IC50: 15.8 µM
MHCC97H [2]
  IC50: 6.19 µM
[3]
  Kd: 113 µM

## COc1cc2nccc(Oc3ccc(NC(=O)NC4CC4)c(Cl)c3)c2cc1C(N)=O [LENVATINIB]
HCCLM3 [4]
  inhibition in vivo at 5 mg/kg: 94.6%
MHCC97H [5]
  inhibition in vivo at 5 mg/kg: 85%
HCCLM3 [1]
  IC50: 27.8 µM
MHCC97H [2]
  IC50: > 80 µM

## COC(=O)c1ccc2[nH]cc(C(=O)C(=O)NC3CCN(c4ccc(C)cc4Cl)C3=O)c2c1 (stereo not given)
MHCC97H [6]
  IC50: 17 µM
MKN-45
  IC50: 13.9 µM
HCCLM3 [4]
  inhibition in vivo at 5 mg/kg: 58.8%
In vivo [7]
  Tmax at 24 h: 4.8 min
MHCC97H [5]
  inhibition in vivo at 5 mg/kg: 23.4%
[8]
  Kd: 6.62 µM
HCCLM3 [1]
  IC50: 6.22 µM
MHCC97H [9]
  inhibition in vivo at 10 mg/kg: 70%
Hepa 1-6
  IC50: 6.22 µM
MHCC97H [10]
  inhibition in vivo at 20 mg/kg: 73.5%
SK-OV-3
  IC50: 98.7 µM
PLC-PRF-5
  IC50: 6.52 µM
Jurkat
  IC50: 6.69 µM
In vivo [11]
  AUC at 24 h: 1850 ng·h/mL
Calu-3
  IC50: 41.6 µM
MHCC97H [12]
  IC50: 6.92 µM
THLE-2
  IC50: > 20 µM
HCCLM3 [13]
  IC50: 18.4 µM
[14]
  half-life at 24 h: 46.2 min
In vivo [15]
  Cmax at 24 h: 3350 ng/mL
MHCC97H [2]
  IC50: 6.53 µM
K562
  IC50: 8.25 µM
[16]
  CL/F at 24 h: 20 mL/min/kg
NCI-H446
  IC50: 11.6 µM
HT-29
  IC50: 4.71 µM
[3]
  Kd: 3.96 µM
Hep 3B2
  IC50: 12.2 µM
In vivo [17]
  Tmax at 24 h: 13.2 min
Huh-7
  IC50: 12.5 µM
NCI-H1650
  IC50: 21.6 µM
MDA-MB-231
  IC50: 12.3 µM
[18]
  half-life at 24 h: 251 min
PC-3
  IC50: 13.7 µM
In vivo [19]
  bioavailability at 24 h: 66.4%
H4
  IC50: 6.65 µM
U-251
  IC50: 6.16 µM
In vitro [20]
  half-life at 1 h, 0.02 µM: 17 min
In vitro [21]
  half-life at 1 h, 0.02 µM: 37.9 min
[22]
  clearance at 24 h: 10 mL/min/kg
HCCLM3 [23]
  inhibition in vivo at 10 mg/kg: 59%
In vivo [24]
  AUC at 24 h: 9520 ng·h/mL
In vivo [25]
  Cmax at 24 h: 9140 ng/mL
U-937
  IC50: 5.99 µM
MEG-01
  IC50: 11.5 µM
SNU-387
  IC50: 11.7 µM
SW-620
  IC50: 8.66 µM
AGS
  IC50: 5.33 µM
In vitro [26]
  half-life at 1 h, 0.02 µM: 25.9 min
THP-1
  IC50: 23.9 µM
MHCC97H [27]
  IC50: 18.9 µM
HCC1937
  IC50: 47.9 µM

## Cc1ccc(N2CCC(NC(=O)C(=O)Nc3ccc4c(c3)CCC4)C2=O)c(Cl)c1 (stereo not given)
HCCLM3 [1]
  IC50: 11.7 µM
MHCC97H [2]
  IC50: 3.51 µM
[3]
  Kd: 206 µM

## Cc1ccc(N2CCC(NC(=O)C(=O)Nc3ccc(-c4ccccc4)cc3)C2=O)c(Cl)c1 (stereo not given)
HCCLM3 [1]
  IC50: 17.7 µM
MHCC97H [2]
  IC50: 5.59 µM
[3]
  Kd: 289 µM

## Cc1ccc(N2CCC(NC(=O)C(=O)c3c[nH]c4ccc(C(=O)O)cc34)C2=O)c(Cl)c1 (stereo not given)
HCCLM3 [1]
  IC50: > 80 µM
MHCC97H [2]
  IC50: > 80 µM

## Cc1ccc(N2CCC(NC(=O)C(=O)c3c[nH]c4cc(C(=O)O)ccc34)C2=O)c(Cl)c1 (stereo not given)
HCCLM3 [1]
  IC50: > 80 µM
MHCC97H [2]
  IC50: > 80 µM

## Cc1ccc(N2CCC(NC(=O)C(=O)c3c[nH]c4ccc(F)cc34)C2=O)c(Cl)c1 (stereo not given)
HCCLM3 [1]
  IC50: 44.3 µM
MHCC97H [2]
  IC50: 35.1 µM

## Cc1ccc(C(=O)NCC2CCN(C(=O)C(=O)c3c[nH]c4ccc(Br)cc34)CC2)c(Cl)c1
HCCLM3 [1]
  IC50: 23.6 µM
MHCC97H [2]
  IC50: 12.9 µM
